Here are results for 60 molecules from ChEMBL document CHEMBL1150752, “Inhibition of cow's milk xanthine oxidase by flavonoids” (J Nat Prod, 1988).

The target of the test is Xanthine dehydrogenase/oxidase (Bos taurus, UniProt P80457). Briefly: Inhibition of cow milk xanthine oxidase at 50 ug/mL. As to conditions: cattle.
Chain of Xanthine dehydrogenase/oxidase (P80457 whole entry): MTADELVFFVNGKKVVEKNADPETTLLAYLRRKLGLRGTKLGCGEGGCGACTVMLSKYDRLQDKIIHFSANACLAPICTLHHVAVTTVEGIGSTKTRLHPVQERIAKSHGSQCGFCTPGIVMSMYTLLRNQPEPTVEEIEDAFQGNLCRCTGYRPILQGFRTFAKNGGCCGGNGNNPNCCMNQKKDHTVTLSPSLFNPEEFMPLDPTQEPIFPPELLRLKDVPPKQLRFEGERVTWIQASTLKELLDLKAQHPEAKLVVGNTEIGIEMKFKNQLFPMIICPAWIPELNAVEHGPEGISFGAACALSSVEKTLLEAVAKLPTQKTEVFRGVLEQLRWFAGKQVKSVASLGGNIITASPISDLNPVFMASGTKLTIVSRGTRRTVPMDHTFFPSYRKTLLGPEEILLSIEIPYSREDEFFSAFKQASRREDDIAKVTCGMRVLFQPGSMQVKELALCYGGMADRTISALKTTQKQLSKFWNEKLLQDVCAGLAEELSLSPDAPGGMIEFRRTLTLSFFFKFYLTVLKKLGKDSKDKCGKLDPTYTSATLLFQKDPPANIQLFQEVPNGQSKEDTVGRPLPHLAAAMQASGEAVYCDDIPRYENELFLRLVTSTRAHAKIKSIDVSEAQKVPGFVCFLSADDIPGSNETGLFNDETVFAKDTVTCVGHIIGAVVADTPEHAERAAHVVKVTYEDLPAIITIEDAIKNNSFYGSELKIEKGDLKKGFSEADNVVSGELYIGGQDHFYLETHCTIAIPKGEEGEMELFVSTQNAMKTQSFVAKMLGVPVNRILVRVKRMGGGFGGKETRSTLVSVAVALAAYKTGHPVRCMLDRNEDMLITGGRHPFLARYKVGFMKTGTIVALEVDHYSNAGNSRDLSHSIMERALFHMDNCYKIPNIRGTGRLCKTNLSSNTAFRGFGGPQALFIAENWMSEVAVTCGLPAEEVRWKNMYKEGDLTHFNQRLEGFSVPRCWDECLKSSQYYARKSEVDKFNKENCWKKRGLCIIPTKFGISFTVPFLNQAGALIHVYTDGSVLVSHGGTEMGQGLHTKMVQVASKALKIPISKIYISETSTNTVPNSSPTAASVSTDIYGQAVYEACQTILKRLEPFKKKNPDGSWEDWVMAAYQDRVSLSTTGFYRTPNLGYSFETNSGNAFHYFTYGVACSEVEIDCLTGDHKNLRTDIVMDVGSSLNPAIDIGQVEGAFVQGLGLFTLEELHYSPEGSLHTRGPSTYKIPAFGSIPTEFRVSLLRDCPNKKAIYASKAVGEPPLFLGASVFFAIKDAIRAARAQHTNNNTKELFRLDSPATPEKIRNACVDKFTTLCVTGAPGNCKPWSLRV

As usually defined, the inhibition is the drop in the measured response relative to a control, in per cent. Lower therefore signals a response near the control. In turn, `CC(=O)Oc1cc(OC(C)=O)c2c(=O)c(OC(C)=O)c(-c3ccc(OC(C)=O)c(OC(C)=O)c3)oc2c1` had an inhibition at 50 µg/mL of 0%.
With `COc1ccc(-c2cc(=O)c3c(O)cc(O[C@@H]4O[C@H](CO[C@@H]5OC[C@@H](O)[C@@H](O)[C@@H]5O)[C@@H](O)[C@H](O)[C@H]4O)cc3o2)cc1O`, the inhibition at 50 µg/mL was determined as 30.5%.
`O=C(O[C@H]1[C@H](Oc2c(-c3ccc(O)c(O)c3)oc3cc(O)cc(O)c3c2=O)O[C@H](CO)[C@@H](O)[C@@H]1O)c1cc(O)c(O)c(O)c1` registered an inhibition at 50 µg/mL of 21%.
The molecule `O=c1c(O)c(-c2ccc(O)cc2)oc2cc(O[C@@H]3O[C@H](CO)[C@@H](O)[C@H](O)[C@H]3O)cc(O)c12` gave an inhibition at 50 µg/mL of 0%.
For `O=c1cc(-c2ccc(O)c(O)c2)oc2cc(O[C@@H]3O[C@H](CO)[C@@H](O)[C@H](O)[C@H]3O)c([C@@H]3O[C@H](CO)[C@@H](O)[C@H](O)[C@H]3O)c(O)c12`, the inhibition at 50 µg/mL turned out to be 0%.
For `CC(=O)Oc1cc(OC(C)=O)c2c(=O)c(OC(C)=O)c(-c3cc(OC(C)=O)c(OC(C)=O)c(OC(C)=O)c3)oc2c1`, testing at 50 µg/mL gave an inhibition of 13.6%.
For the molecule `CC(=O)Oc1ccc(-c2cc(=O)c3c(OC(C)=O)c(OC(C)=O)c(OC(C)=O)cc3o2)cc1`, testing at 50 µg/mL gave an inhibition of 0%.
The value for `COc1cc2oc(-c3ccc(O[C@@H]4O[C@H](CO)[C@@H](O)[C@H](O)[C@H]4O)c(O)c3)cc(=O)c2c(O)c1OC` was 0%; that for `COc1cc(-c2cc(=O)c3c(O)c(OC)c(OC)cc3o2)ccc1O[C@@H]1O[C@H](CO)[C@@H](O)[C@H](O)[C@H]1O` was 0%.
`COc1ccc(-c2cc(=O)c3c(O)cc(O[C@@H]4O[C@H](CO)[C@@H](O)[C@H](O)[C@H]4O)cc3o2)cc1O` showed an inhibition at 50 µg/mL of 28.9%.
The molecule `COc1cc(-c2cc(=O)c3c(O)cc(O[C@H]4O[C@@H](C(=O)O)[C@H](O)[C@@H](O)[C@@H]4O)cc3o2)ccc1O` came in with an inhibition at 50 µg/mL of 0.3%.
Molecule `CC(=O)Oc1cc(OC(C)=O)c2c(=O)cc(-c3ccc(OC(C)=O)c(OC(C)=O)c3)oc2c1` showed an inhibition at 50 µg/mL of 47.7%.
In the case of `O=C1c2c(O)cc(O)cc2O[C@H](c2ccc(O)c(O)c2)[C@H]1O` [(+)-TAXIFOLIN], the inhibition at 50 µg/mL worked out at 17.8%.
The value for `COc1ccc(-c2cc(=O)c3c(O)cc(O[C@@H]4O[C@H](CO[C@@H]5O[C@@H](C)[C@H](O)[C@@H](O)[C@H]5O)[C@@H](O)[C@H](O)[C@H]4O)cc3o2)cc1` [ACACIIN] was 15.1%; that for `O=c1cc(-c2ccc(O)cc2)oc2cc(O[C@@H]3O[C@H](CO)[C@@H](O)[C@H](O)[C@H]3O)cc(O)c12` [APIGETRIN] was 13.9%; that for `C[C@@H]1O[C@@H](O[C@H]2C(=O)c3c(O)cc(O)cc3O[C@@H]2c2ccc(O)c(O)c2)[C@H](O)[C@H](O)[C@H]1O` [ASTILBIN] was 0%.
As for `O=c1c(O[C@@H]2O[C@@H](CO)[C@H](O)[C@H]2O)c(-c2ccc(O)c(O)c2)oc2cc(O)cc(O)c12` [AVICULARIN], testing at 50 µg/mL gave an inhibition of 30.8%.
In turn, `COc1cc2oc(-c3ccccc3)cc(=O)c2c(OC)c1OC` [BAICALEIN TRIMETHYL ETHER] returned an inhibition at 50 µg/mL of 22%.
The molecule `COc1cc(-c2cc(=O)c3c(O)cc(O)cc3o2)ccc1O` [CHRYSOERIOL] had an inhibition at 50 µg/mL of 61.5%.
On to `COc1cc(-c2cc(=O)c3c(O)c(OC)c(OC)cc3o2)ccc1O` [CIRSILENEOL], for which the inhibition at 50 µg/mL turned out to be 1%.
`COc1cc2oc(-c3ccc(O)c(O)c3)cc(=O)c2c(O)c1OC` [CIRSILIOL]: testing at 50 µg/mL gave an inhibition of 0.5%.
As for `COc1cc2oc(-c3ccc(O[C@@H]4O[C@H](CO)[C@@H](O)[C@H](O)[C@H]4O)cc3)cc(=O)c2c(O)c1OC` [CIRSIMARIN], the inhibition at 50 µg/mL came to 12.2%.
For the molecule `COc1cc2oc(-c3ccc(O)cc3)cc(=O)c2c(O)c1OC` [CIRSIMARITIN], at 50 µg/mL the inhibition was 0%.
`O=c1c(-c2ccc(O)cc2)coc2cc(O)ccc12` [DAIDZEIN] displayed an inhibition at 50 µg/mL of 0%.
`O=c1c(-c2ccc(O)cc2)coc2cc(O[C@@H]3O[C@H](CO)[C@@H](O)[C@H](O)[C@H]3O)ccc12` [DAIDZIN] displayed an inhibition at 50 µg/mL of 0%.
The value for `COc1ccc(-c2cc(=O)c3c(O)cc(O[C@@H]4O[C@H](CO[C@@H]5O[C@@H](C)[C@H](O)[C@@H](O)[C@H]5O)[C@@H](O)[C@H](O)[C@H]4O)cc3o2)cc1O` [DIOSMIN] was 0%; that for `COc1ccc(-c2cc(=O)c3c(O)c([C@@H]4O[C@H](CO)[C@@H](O)[C@H](O)[C@H]4O)c(OC)cc3o2)cc1` [EMBIGENIN] was 33.5%.
Molecule `COc1ccc(-c2cc(=O)c3c(O)c([C@H]4O[C@H](CO)[C@@H](O)[C@H](O)[C@H]4O[C@H]4O[C@H](C)[C@@H](O)[C@H](O)[C@@H]4O)c(OC)cc3o2)cc1` [EMBININ] yielded an inhibition at 50 µg/mL of 22.8%.
`O=C1C[C@@H](c2ccc(O)c(O)c2)Oc2cc(O)cc(O)c21` [ERIODICTYOL] had an inhibition at 50 µg/mL of 47.8%.
For `COc1c(O)cc2oc(-c3ccc(O)c(O)c3)cc(=O)c2c1O` [EUPAFOLIN], testing at 50 µg/mL gave an inhibition of 49%.
The value for `O=c1cc(-c2ccccc2)oc2ccccc12` [FLAVONE] was 15.4%; that for `COc1ccc(-c2coc3cc(O)ccc3c2=O)cc1` [FORMONONETIN] was 17.6%.
The value for `O=C1c2ccc(O)cc2O[C@H](c2ccc(O)c(O)c2)[C@H]1O` [FUSTIN] was 27.2%; that for `O=c1c(-c2ccc(O)cc2)coc2cc(O)cc(O)c12` [GENISTEIN] was 0%.
Take `O=c1c(-c2ccc(O)cc2)coc2cc(O[C@@H]3O[C@H](CO)[C@@H](O)[C@H](O)[C@H]3O)cc(O)c12` [GENISTIN]: the inhibition at 50 µg/mL came out at 0.8%.
The value for `O=c1c(O[C@@H]2O[C@H](CO)[C@H](O)[C@H](O)[C@H]2O)c(-c2ccc(O)c(O)c2)oc2cc(O)cc(O)c12` [HYPEROSIDE] was 43%; that for `COc1cc(-c2coc3cc(O[C@@H]4O[C@H](CO)[C@@H](O)[C@H](O)[C@H]4O)c(OC)c(O)c3c2=O)cc(O)c1OC` [IRIDIN] was 0%; that for `COc1cc(-c2coc3cc(O)c(OC)c(O)c3c2=O)cc(O)c1OC` [IRIGENIN] was 0%.
The value for `COc1cc(-c2coc3cc4c(c(OC)c3c2=O)OCO4)cc(OC)c1OC` [IRISFLORENTIN] was 0%.
The value for `COc1c2c(cc3occ(-c4ccc(O)cc4)c(=O)c13)OCO2` [IRISOLONE] was 0%; that for `COc1ccc(-c2coc3cc(O)c(OC)c(O)c3c2=O)cc1O` [IRISTECTORIGENIN A] was 0%; that for `O=c1cc(-c2ccc(O)c(O)c2)oc2cc(O)c([C@@H]3O[C@H](CO)[C@@H](O)[C@H](O)[C@H]3O)c(O)c12` [ISOORIENTIN] was 25.2%.
As to `COc1cc(-c2oc3cc(O)cc(O)c3c(=O)c2O)ccc1O` [ISORHAMNETIN], the inhibition at 50 µg/mL was 49%.
The molecule `O=c1c(O[C@@H]2O[C@@H](CO)[C@H](O)[C@H]2O)c(-c2ccc(O)cc2)oc2cc(O)cc(O)c12` [JUGLANIN] displayed an inhibition at 50 µg/mL of 0%.
The value for `COc1cc2oc(-c3ccc(O)cc3)c(O)c(=O)c2c(O)c1[C@@H]1O[C@H](CO)[C@@H](O)[C@H](O)[C@H]1O` [KEYAKININ] was 0%.
In turn, `O=C1C[C@@H](c2ccc(O[C@@H]3O[C@H](CO)[C@@H](O)[C@H](O)[C@H]3O)cc2)Oc2cc(O)ccc21` [LIQUIRITIN] registered an inhibition at 50 µg/mL of 18%.
The molecule `O=C1C[C@@H](c2ccc(O)cc2)Oc2cc(O)ccc21` [LIQUIRTIGENIN] displayed an inhibition at 50 µg/mL of 100%.
The value for `C[C@@H]1O[C@@H](O[C@H]2[C@H](Oc3cc(O)c4c(=O)cc(-c5ccc(O)c(O)c5)oc4c3)O[C@H](CO)[C@@H](O)[C@@H]2O)[C@H](O)[C@H](O)[C@H]1O` [LONICERIN] was 20.1%; that for `COc1cc(-c2oc3cc(O)cc(O)c3c(=O)c2O[C@@H]2O[C@H](CO[C@@H]3O[C@@H](C)[C@H](O)[C@@H](O)[C@H]3O)[C@@H](O)[C@H](O)[C@H]2O)ccc1O` [NARCISSIN] was 22.2%; that for `O=c1cc(-c2ccc(O)c(O)c2)oc2c([C@@H]3O[C@H](CO)[C@@H](O)[C@H](O)[C@H]3O)c(O)cc(O)c12` [ORIENTIN] was 15.3%.
The value for `COc1ccc(-c2cc(=O)c3c(O)c(OC)c(O)cc3o2)cc1` [PECTOLINARIGENIN] was 32.1%; that for `COc1ccc(-c2cc(=O)c3c(O)c(OC)c(O[C@@H]4O[C@H](CO[C@@H]5O[C@@H](C)[C@H](O)[C@@H](O)[C@H]5O)[C@@H](O)[C@H](O)[C@H]4O)cc3o2)cc1` [PECTOLINARIN] was 11.5%; that for `CC(C)=CCc1c(O[C@@H]2O[C@H](CO)[C@@H](O)[C@H](O)[C@H]2O)cc(O)c2c1O[C@H](c1ccc(O)cc1)[C@@H](O)C2=O` [PHELLAMURIN] was 0%.
The molecule `COc1ccc([C@@H]2CC(=O)c3c(O)cc(O[C@@H]4O[C@H](CO)[C@@H](O)[C@H](O)[C@H]4O[C@@H]4O[C@@H](C)[C@H](O)[C@@H](O)[C@H]4O)cc3O2)cc1` [PONCIRIN] registered an inhibition at 50 µg/mL of 0%.
Regarding `O=C1C[C@@H](c2ccc(O)cc2)Oc2cc(O[C@@H]3O[C@H](CO)[C@@H](O)[C@H](O)[C@H]3O)cc(O)c21` [PRUNIN], the inhibition at 50 µg/mL was 4.2%.
As for `O=C(O)[C@H]1O[C@@H](Oc2c(-c3ccc(O)c(O)c3)oc3cc(O)cc(O)c3c2=O)[C@H](O)[C@@H](O)[C@@H]1O` [QUERCETIN GLUCURONIDE], the inhibition at 50 µg/mL came out at 36.5%.
With `O=c1c(O)c(-c2ccc(O)c(O)c2)oc2cc(O[C@@H]3O[C@H](CO)[C@@H](O)[C@H](O)[C@H]3O)cc(O)c12` [QUERCIMERITRIN], the inhibition at 50 µg/mL is 0%.
`O=c1c(O[C@@H]2OC[C@@H](O)[C@H](O)[C@H]2O)c(-c2ccc(O)c(O)c2)oc2cc(O)cc(O)c12` [REYNOUTRIN] showed an inhibition at 50 µg/mL of 33.1%.
Regarding `C[C@@H]1O[C@@H](O[C@H]2[C@H](Oc3cc(O)c4c(=O)cc(-c5ccc(O)cc5)oc4c3)O[C@H](CO)[C@@H](O)[C@@H]2O)[C@H](O)[C@H](O)[C@H]1O` [RHOIFOLIN], the inhibition at 50 µg/mL amounted to 12.9%.
Consider `O=c1c(O)c(-c2cc(O)c(O)c(O)c2)oc2cc(O)ccc12` [ROBINETIN], for which at 50 µg/mL the inhibition was 82.9%.
